# In ChEMBL document CHEMBL1629682, “Nitazoxanide inhibits biofilm formation by Staphylococcus epidermidis by blocking accumulation on surfaces” (Antimicrob Agents Chemother, 2010):
# Calls of active or inactive are those of the source. The rule behind the calls is not given here.
# Key:
# [1] = tested on: Staphylococcus epidermidis; test: Antimicrobial activity against Staphylococcus epidermidis CAV1005 under aerobic condition by microdilution method; format: functional, organism-based
# [2] = tested on: Staphylococcus epidermidis; test: Antimicrobial activity against Staphylococcus epidermidis CAV1005 at 25 ug/ml under aerobic condition by microdilution method; format: functional, organism-based
# [3] = tested on: Staphylococcus epidermidis; test: Antimicrobial activity against Staphylococcus epidermidis 5179 at 25 ug/ml under aerobic condition by microdilution method; format: functional, organism-based
# [4] = tested on: Staphylococcus epidermidis; test: Antimicrobial activity against Staphylococcus epidermidis CAV1005 by microdilution method; format: functional
# [5] = tested on: Staphylococcus epidermidis; test: Antimicrobial activity against Staphylococcus epidermidis 9142 at 25 ug/ml under aerobic condition by microdilution method; format: functional, organism-based
# [6] = Plasma protein binding in healthy volunteers at […], po administered as single dose; format: ADME, organism-based; set-up: route oral; conditions: human, read-out: PPB (converted)
# [7] = tested on: Staphylococcus epidermidis; test: Antimicrobial activity against Staphylococcus epidermidis 5179 by microdilution method; format: functional
# [8] = tested on: Staphylococcus epidermidis; test: Antimicrobial activity against Staphylococcus epidermidis 9142 at 1 to 5 ug/ml by microplate assay; format: functional, organism-based
# [9] = tested on: Staphylococcus epidermidis; test: Antimicrobial activity against Staphylococcus epidermidis 9142 under aerobic condition by microdilution method; format: functional, organism-based
# [10] = tested on: Staphylococcus epidermidis; test: Antimicrobial activity against Staphylococcus epidermidis 9142 by microdilution method; format: functional
# [11] = tested on: Staphylococcus epidermidis; test: Antimicrobial activity against Staphylococcus epidermidis 5179 under aerobic condition by microdilution method; format: functional, organism-based
# [12] = Aqueous solubility of the compound; format: physicochemical
# [13] = tested on: Staphylococcus epidermidis; test: Antimicrobial activity against Staphylococcus epidermidis 9142 assessed as inhibition of bacterial attachment to plastics at 10 ug/ml under static condition for 3 hrs by microscopic analysis; format: functional, organism-based
# [14] = tested on: Staphylococcus epidermidis; test: Antimicrobial activity against biofilm-positive Staphylococcus epidermidis clinical isolate ICS3 assessed as inhibition of biofilm formation after 16 hrs by crystal violet staining; format: functional, organism-based
# [15] = tested on: Staphylococcus epidermidis; test: Antimicrobial activity against Staphylococcus epidermidis 9142 under microaeration condition at 10 ug/ml by microdilution method; format: functional, organism-based
# [16] = tested on: Staphylococcus epidermidis; test: Antimicrobial activity against biofilm-positive Staphylococcus epidermidis clinical isolate ICS2 by microdilution method; format: functional, organism-based
# [17] = tested on: Staphylococcus epidermidis; test: Antimicrobial activity against biofilm-positive Staphylococcus epidermidis clinical isolate ICS4 by microdilution method; format: functional, organism-based
# [18] = tested on: Staphylococcus epidermidis; test: Antimicrobial activity against biofilm-positive Staphylococcus epidermidis clinical isolate ICS3 by microdilution method; format: functional, organism-based
# [19] = tested on: Staphylococcus epidermidis; test: Antimicrobial activity against Staphylococcus epidermidis 5179 under microaeration condition at 10 ug/ml by microdilution method; format: functional, organism-based
# [20] = tested on: Staphylococcus epidermidis; test: Antimicrobial activity against Staphylococcus epidermidis 9142 assessed as inhibition of bacterial attachment to plastics at 15 ug/ml under static condition for 3 hrs by microscopic analysis in presence of 10 uM Zn ions; format: functional, organism-based
# [21] = tested on: Staphylococcus haemolyticus; test: Antimicrobial activity against Staphylococcus haemolyticus S33208 assessed as growth inhibition at 8 ug/ml by microdilution method; format: functional, organism-based
# [22] = tested on: Staphylococcus epidermidis; test: Antimicrobial activity against Staphylococcus epidermidis 9142 expressing surface protein Aap by microdilution method in presence of 10 uM Zn ions; format: functional
# [23] = tested on: Staphylococcus epidermidis; test: Antimicrobial activity against Staphylococcus epidermidis 9142 assessed as growth inhibition at 8 ug/ml by microdilution method; format: functional, organism-based
# [24] = tested on: Staphylococcus haemolyticus; test: Antimicrobial activity against Staphylococcus haemolyticus S33208 assessed as inhibition of biofilm formation after 24 hrs by crystal violet staining; format: functional, organism-based
# [25] = tested on: Staphylococcus epidermidis; test: Antimicrobial activity against Staphylococcus epidermidis 9142 assessed as inhibition of bacterial attachment to plastics at 15 ug/ml under static condition for 3 hrs by microscopic analysis; format: functional, organism-based
# [26] = tested on: Staphylococcus hominis; test: Antimicrobial activity against Staphylococcus hominis F13532 assessed as inhibition of biofilm formation after 24 hrs by microdilution method; format: functional; conditions: F13532, 24 h
# [27] = tested on: Staphylococcus epidermidis; test: Antimicrobial activity against Staphylococcus epidermidis 9142 expressing surface protein Aap assessed as inhibition of biofilm formation at 12.5 ug/ml by spectrophotometry in presence of magnesium ions; format: functional, organism-based
# [28] = tested on: Staphylococcus epidermidis; test: Antimicrobial activity against biofilm-positive Staphylococcus epidermidis clinical isolate ICS1 by microdilution method; format: functional, organism-based
# [29] = tested on: Staphylococcus epidermidis; test: Antimicrobial activity against Staphylococcus epidermidis clinical isolate 5179-R1 derived from PNAG negative, icaA::IS257 mutant 5179 strain produces a proteinaceous biofilm dependent on a truncated 140-kDa isoform of Aap by microdilution method; format: functional, organism-based
# [30] = tested on: Staphylococcus epidermidis; test: Antimicrobial activity against biofilm-positive Staphylococcus epidermidis clinical isolate ICS5 assessed as inhibition of biofilm formation after 16 hrs by crystal violet staining; format: functional, organism-based
# [31] = tested on: Staphylococcus epidermidis; test: Antimicrobial activity against Staphylococcus epidermidis clinical isolate 5179-R1 derived from PNAG negative, icaA::IS257 mutant 5179 strain produces a proteinaceous biofilm dependent on a truncated 140-kDa isoform of Aap assessed as inhibition of biofilm formation after 16 hrs by crystal violet staining; format: functional, organism-based
# [32] = tested on: Staphylococcus epidermidis; test: Antimicrobial activity against Staphylococcus epidermidis 9142 expressing surface protein Aap assessed as inhibition of biofilm formation at 12.5 ug/ml by spectrophotometry in presence of calcium ions; format: functional, organism-based
# [33] = tested on: Staphylococcus epidermidis; test: Antimicrobial activity against Staphylococcus epidermidis 9142 assessed as inhibition of biofilm formation after 24 hrs by crystal violet staining; format: functional, organism-based
# [34] = tested on: Staphylococcus haemolyticus; test: Antimicrobial activity against Staphylococcus haemolyticus S33208 assessed as growth inhibition at 16 ug/ml by microdilution method; format: functional, organism-based
# [35] = tested on: Staphylococcus epidermidis; test: Antimicrobial activity against Staphylococcus epidermidis 9142 assessed as inhibition of bacterial primary attachment to plastics during 3 hrs at 15 ug/ml by microscopic analysis; format: functional, organism-based
# [36] = tested on: Staphylococcus epidermidis; test: Antimicrobial activity against biofilm-positive Staphylococcus epidermidis clinical isolate ICS2 assessed as inhibition of biofilm formation after 16 hrs by crystal violet staining; format: functional, organism-based
# [37] = tested on: Staphylococcus epidermidis; test: Antimicrobial activity against Staphylococcus epidermidis CAV1005 assessed as inhibition of biofilm formation after 24 hrs by microdilution method; format: functional; conditions: CAV1005, 24 h
# [38] = tested on: Staphylococcus epidermidis; test: Antimicrobial activity against Staphylococcus epidermidis 9142 at 25 ug/ml by microdilution method; format: functional, organism-based
# [39] = tested on: Staphylococcus epidermidis; test: Antimicrobial activity against biofilm-positive Staphylococcus epidermidis clinical isolate ICS4 assessed as inhibition of biofilm formation after 16 hrs by crystal violet staining; format: functional, organism-based
# [40] = tested on: Staphylococcus epidermidis; test: Antimicrobial activity against Staphylococcus epidermidis 9142 expressing surface protein Aap assessed as inhibition of bacterial growth at 12.5 ug/ml by spectrophotometry in presence of 10 uM Zn ions; format: functional, organism-based
# [41] = tested on: Staphylococcus epidermidis; test: Antimicrobial activity against biofilm-positive Staphylococcus epidermidis clinical isolate ICS1 assessed as inhibition of biofilm formation after 16 hrs by crystal violet staining; format: functional, organism-based
# [42] = tested on: Staphylococcus epidermidis; test: Antimicrobial activity against Staphylococcus epidermidis 9142 expressing surface protein Aap up to 10 hrs by microdilution method in presence of 10 uM Zn ions; format: functional, organism-based
# [43] = tested on: Staphylococcus epidermidis; test: Antimicrobial activity against Staphylococcus epidermidis 9142 expressing surface protein Aap assessed as inhibition of biofilm formation at 12.5 ug/ml by spectrophotometry in presence of EDTA; format: functional, organism-based
# [44] = tested on: Staphylococcus epidermidis; test: Antimicrobial activity against Staphylococcus epidermidis 9142 assessed as inhibition of bacterial accumulation on catheters treated for 12 hrs post biofilm formation measured after 24 hrs by crystal voilet staining; format: functional, organism-based
# [45] = tested on: Staphylococcus epidermidis; test: Antimicrobial activity against Staphylococcus epidermidis 9142 expressing surface protein Aap assessed as inhibition of bacterial growth at 12.5 ug/ml after 16 hrs by spectrophotometry in presence of 10 uM Zn ions; format: functional, organism-based
# [46] = tested on: Staphylococcus epidermidis; test: Antimicrobial activity against Staphylococcus epidermidis 9142 assessed as inhibition of bacterial primary attachment to plastics at 15 ug/ml under shaking condition for 3 hrs by microscopic analysis; format: functional, organism-based
# [47] = tested on: Staphylococcus epidermidis; test: Antimicrobial activity against biofilm-positive Staphylococcus epidermidis clinical isolate ICS5 by microdilution method; format: functional, organism-based
# [48] = tested on: Staphylococcus epidermidis; test: Antimicrobial activity against Staphylococcus epidermidis 9142 assessed as growth inhibition at 16 ug/ml by microdilution method; format: functional, organism-based
# [49] = tested on: Staphylococcus epidermidis; test: Antimicrobial activity against Staphylococcus epidermidis 9142 assessed as inhibition of bacterial accumulation on catheters after 24 hrs by catheter adherence model; format: functional, organism-based
# [50] = tested on: Staphylococcus epidermidis; test: Antimicrobial activity against Staphylococcus epidermidis 9142 expressing surface protein Aap assessed as inhibition of biofilm formation at 12.5 ug/ml by spectrophotometry in presence of Zn ions; format: functional, organism-based
# [51] = tested on: Staphylococcus epidermidis; test: Antimicrobial activity against Staphylococcus epidermidis CAV1005 under microaeration condition at 10 ug/ml by microdilution method; format: functional, organism-based
smiles,measurement,setting,value
O=C(Nc1ncc([N+](=O)[O-])s1)c1ccccc1O [TIZOXANIDE],Activity,[1],Dose-dependent effect
same,Activity,[2],Active
same,Activity,[3],Active
same,MIC,[4],8 µg/mL
same,Activity,[5],Active
same,fraction unbound,[6],0.025
same,MIC,[7],8 µg/mL
same,Activity,[8],Active
same,Activity,[9],Dose-dependent effect
same,MIC,[10],8 µg/mL
same,Activity,[11],Dose-dependent effect
Cl.NCCOc1ccccc1C(=O)Nc1ncc([N+](=O)[O-])s1,solubility,[12],400 µg/mL
CC(=O)Oc1ccccc1C(=O)Nc1ncc([N+](=O)[O-])s1 [NITAZOXANIDE],Activity,[13],Active
same,inhibition,[14],Active
same,Activity,[1],Dose-dependent effect
same,Activity,[15],Active
same,Activity,[2],Active
same,IC50,[16],1 µg/mL
same,MIC,[16],16 µg/mL
same,IC50,[17],1 µg/mL
same,MIC,[17],16 µg/mL
same,IC50,[18],1 µg/mL
same,MIC,[18],16 µg/mL
same,Activity,[19],Active
same,Activity,[20],Active
same,Activity,[21],Active
same,MIC,[22],16 µg/mL
same,Activity,[3],Active
same,Activity,[23],Active
same,MIC,[4],8 µg/mL
same,Activity,[24],Dose-dependent effect
same,Activity,[25],Active
same,Activity,[5],Active
same,MIC,[26],> 32 µg/mL
same,Activity,[27],Active
same,IC50,[28],1 µg/mL
same,MIC,[28],16 µg/mL
same,IC50,[29],1 µg/mL
same,MIC,[29],16 µg/mL
same,inhibition,[30],Active
same,inhibition,[31],Active
same,Activity,[32],Active
same,MIC,[7],8 µg/mL
same,Activity,[33],Dose-dependent effect
same,Activity,[34],Active
same,Activity,[35],Active
same,inhibition,[36],Active
same,Activity,[8],Active
same,MIC,[37],> 32 µg/mL
same,Activity,[9],Dose-dependent effect
same,Activity,[38],Active
same,inhibition,[39],Active
same,Activity,[40],Active
same,inhibition,[41],Active
same,Activity,[42],Active
same,Activity,[43],inactive
same,MIC,[10],8 µg/mL
same,Activity,[44],inactive
same,Activity,[45],inactive
same,Activity,[46],Active
same,IC50,[47],1 µg/mL
same,MIC,[47],16 µg/mL
same,Activity,[48],Active
same,Activity,[49],Dose-dependent effect
same,Activity,[50],inactive
same,Activity,[11],Dose-dependent effect
same,Activity,[51],Active
